Assay [1] concerns the target norepinephrine transporter (NET) (Rattus norvegicus, UniProt Q63380). The following applies: rat brain membranes; for Ki: read-out: Ki (nM) ± S.E.M. NET. The method, then: Binding affinities of all compounds were evaluated at the DAT, SERT, and NET in rat brain membranes using previously described methods:
Norepinephrine Transporter Binding Assay. Brains from male Sprague-Dawley rats weighing 200-225 g (Taconic Labs, Germantown, N.Y.) were removed, frontal cortex dissected and rapidly frozen. Membranes were prepared by homogenizing tissues in 20 volumes (w/v) of 50 mM Tris containing 120 mM NaCl and 5 mM KCl, (pH 7.4 at 25° C.), using a Brinkman Polytron and centrifuged at 50,000×g for 10 min at 4° C. The resulting pellet was resuspended in buffer, recentrifuged and resuspended in buffer to a concentration of 80 mg/mL. Ligand binding experiments were conducted in assay tubes containing 0.5 mL buffer for 60 min at 0-4° C. […] Nonspecific binding was determined using 1 mM desipramine. Incubations were terminated by rapid filtration through Whatman GF/B filters, presoaked in 0.05% polyethylenimine, using a Brandel R48 filtering manifold (Brandel Instruments Gaithersburg, Md.). The filters were washed twice with 3 mL cold buffer and transferred to scintillation vials. Beckman Ready Value (3.0 mL) was added and the vials were counted using a Beckman 6000 liquid scintillation counter (Beckman Coulter Instruments, Fullerton, Calif.). […] All compounds were tested as racemic mixtures.

For assay [2], the target named is dopamine transporter (DAT) (Rattus norvegicus (Rat), UniProt P23977). The experiment in a line: Dopamine Transporter Binding Assay ([3H]WIN 35428, rat striatal membranes).
For assay [3], the target named is serotonin transporter (SERT) (Rattus norvegicus (Rat), UniProt P31652). The following applies: for Ki: read-out: Ki (nM) ± S.E.M. SERT, rat brain membranes.
Description: Brains from male Sprague-Dawley rats weighing 200-225 g (Taconic Labs, Germantown, N.Y.) were removed, midbrain dissected and rapidly frozen. […] Nonspecific binding was determined using 10 mM fluoxetine. […] The filters were washed twice with 3 mL cold buffer and transferred to scintillation vials. Beckman Ready Value (3.0 mL) was added and the vials were counted the next day using a Beckman 6000 liquid scintillation counter (Beckman Coulter Instruments, Fullerton, Calif.). […] Data were analyzed with GraphPad Prism software (San Diego, Calif.).
In assay [4] the target is Sigma 2 (Homo sapiens (Human), UniProt Q5BJF2). In words: Sigma 2 binding affinity (Table 5).
Assay [5] deals with Sigma 1 (Homo sapiens (Human), UniProt Q99720). In words: Sigma 1 binding affinity (Table 5).
Setting [6] is: Table 2 thioethanamines and sulfinylethanamines.
The mark [7] stands for this setting: rat brain membranes, Table 2 thioethanamines and sulfinylethanamines, read-out: Ki (nM) ± S.E.M. DAT.
Where [8] appears, read: rat brain membranes, Table 1 thioacetamides and sulfinylacetamides, read-out: Ki (nM) ± S.E.M. DAT.
Where [9] appears, read: Table 1 thioacetamides and sulfinylacetamides.

Like-named read-outs stand apart in the source and are kept apart here.

serotonin transporter (SERT), sequence (P31652 whole entry): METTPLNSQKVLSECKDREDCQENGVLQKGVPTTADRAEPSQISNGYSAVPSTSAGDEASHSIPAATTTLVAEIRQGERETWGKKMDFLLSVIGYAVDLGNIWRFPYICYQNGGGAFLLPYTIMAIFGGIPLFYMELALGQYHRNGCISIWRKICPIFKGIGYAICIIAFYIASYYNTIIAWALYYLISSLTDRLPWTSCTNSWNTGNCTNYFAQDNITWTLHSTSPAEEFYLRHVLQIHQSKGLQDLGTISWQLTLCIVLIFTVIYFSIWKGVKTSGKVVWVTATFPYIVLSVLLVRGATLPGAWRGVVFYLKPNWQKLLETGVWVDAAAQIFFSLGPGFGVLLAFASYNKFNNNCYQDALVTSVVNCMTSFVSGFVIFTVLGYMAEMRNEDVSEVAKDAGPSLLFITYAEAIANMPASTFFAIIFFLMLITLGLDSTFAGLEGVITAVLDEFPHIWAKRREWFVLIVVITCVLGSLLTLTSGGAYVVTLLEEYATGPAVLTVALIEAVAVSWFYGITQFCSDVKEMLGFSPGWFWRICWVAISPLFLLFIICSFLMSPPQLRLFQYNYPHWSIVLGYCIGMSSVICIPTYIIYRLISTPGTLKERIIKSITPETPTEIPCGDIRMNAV
norepinephrine transporter (NET), sequence (Q63380 1-617): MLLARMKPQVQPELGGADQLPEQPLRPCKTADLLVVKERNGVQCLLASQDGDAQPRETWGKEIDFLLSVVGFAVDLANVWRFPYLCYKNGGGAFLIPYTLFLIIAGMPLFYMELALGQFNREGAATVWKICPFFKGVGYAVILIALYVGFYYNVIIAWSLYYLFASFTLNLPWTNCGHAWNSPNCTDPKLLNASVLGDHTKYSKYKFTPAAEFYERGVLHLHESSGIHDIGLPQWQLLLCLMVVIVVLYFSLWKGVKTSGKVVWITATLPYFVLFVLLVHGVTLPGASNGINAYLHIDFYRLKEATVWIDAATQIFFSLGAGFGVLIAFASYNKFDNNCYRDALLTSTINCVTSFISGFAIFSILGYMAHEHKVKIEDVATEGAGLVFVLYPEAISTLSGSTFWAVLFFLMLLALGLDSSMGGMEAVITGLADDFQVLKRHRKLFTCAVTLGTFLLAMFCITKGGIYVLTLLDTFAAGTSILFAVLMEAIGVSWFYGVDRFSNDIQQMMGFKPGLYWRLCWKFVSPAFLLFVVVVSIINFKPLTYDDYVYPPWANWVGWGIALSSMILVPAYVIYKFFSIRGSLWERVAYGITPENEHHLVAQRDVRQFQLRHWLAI
dopamine transporter (DAT), sequence (P23977 whole entry): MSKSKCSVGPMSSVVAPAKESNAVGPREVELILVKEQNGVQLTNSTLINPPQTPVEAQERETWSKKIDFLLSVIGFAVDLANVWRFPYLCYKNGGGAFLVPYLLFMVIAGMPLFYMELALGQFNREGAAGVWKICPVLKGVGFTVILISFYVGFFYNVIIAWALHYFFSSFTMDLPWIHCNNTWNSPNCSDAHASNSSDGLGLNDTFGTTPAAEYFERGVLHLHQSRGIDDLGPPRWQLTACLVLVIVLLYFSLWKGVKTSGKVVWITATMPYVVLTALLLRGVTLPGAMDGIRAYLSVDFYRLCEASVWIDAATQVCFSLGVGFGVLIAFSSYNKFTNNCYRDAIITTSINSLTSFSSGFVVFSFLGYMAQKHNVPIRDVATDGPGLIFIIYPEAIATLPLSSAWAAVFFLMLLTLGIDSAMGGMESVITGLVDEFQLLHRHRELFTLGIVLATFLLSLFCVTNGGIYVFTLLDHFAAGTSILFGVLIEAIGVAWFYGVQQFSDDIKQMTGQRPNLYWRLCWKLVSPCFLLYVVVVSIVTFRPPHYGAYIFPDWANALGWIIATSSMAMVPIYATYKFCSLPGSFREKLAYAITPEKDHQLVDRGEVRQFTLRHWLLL
Sigma 1, sequence (Q99720 whole entry): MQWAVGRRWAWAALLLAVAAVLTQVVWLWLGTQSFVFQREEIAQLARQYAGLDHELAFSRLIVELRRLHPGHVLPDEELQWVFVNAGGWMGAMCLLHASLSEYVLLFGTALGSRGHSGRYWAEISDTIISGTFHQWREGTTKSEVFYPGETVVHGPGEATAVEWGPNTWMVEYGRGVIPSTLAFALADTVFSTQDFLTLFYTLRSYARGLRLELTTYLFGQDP
Sigma 2, sequence (Q5BJF2 whole entry): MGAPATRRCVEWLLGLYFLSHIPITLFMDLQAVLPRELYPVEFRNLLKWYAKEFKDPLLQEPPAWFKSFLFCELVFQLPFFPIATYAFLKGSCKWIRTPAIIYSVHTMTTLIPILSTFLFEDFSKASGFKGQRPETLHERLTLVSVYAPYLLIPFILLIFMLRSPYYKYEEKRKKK

As for `CCCCNCC[S+]([O-])C(c1ccccc1)c1ccccc1` (stereo not drawn) [Compound 5b, N-(2-(benzhydrylsulfinyl)ethyl)butan-1-amine], the inhibitory constant (Ki) in assay [1] (setting [6]) is more than 140000 nM; in assay [2] (setting [7]), 1580 nM; in assay [3] (setting [6]) it was 64600 nM.

Turning to `CCCCNC(=O)CSC(c1ccc(F)cc1)c1ccc(F)cc1` [Compound 2s, 2-((Bis(4-fluorophenyl)methyl)thio)-N-butylacetamide], the Ki in assay [2] (setting [8]) is 6470 nM.

For `CCCNC(=O)CSC(c1ccc(F)cc1)c1ccc(F)cc1` [Compound 2l, 2-((Bis(4-fluorophenyl)methyl)thio)-N-propylacetamide], the Ki in assay [1] (setting [9]) worked out at 61700 nM; in assay [2] (setting [8]), 12000 nM; in assay [3] (setting [9]), 45100 nM.

Turning to `CNC(=O)C[S+]([O-])C(c1ccccc1)c1ccccc1` (stereo not drawn) [Compound 3f, 2-(Benzhydrylsulfinyl)-N-methylacetamide], the Ki in assay [1] (setting [9]) was more than 100000 nM; in assay [2] (setting [8]) it was 13400 nM; in assay [3] (setting [9]), more than 100000 nM.

Consider `NC(=O)CSC(c1ccc(Cl)cc1)c1ccc(Cl)cc1` [Compound 100, reference compound], for which the Ki amounted to 2230 nM in assay [2] (read-out: Ki (nM) ± S.E.M. DAT) and 12700 nM in assay [3] (setting [9]).

Turning to `[O-][S+](CCNCCCc1ccccc1)C(c1ccc(Cl)cc1)c1ccc(Cl)cc1` (stereo not drawn) [Compound 5d, N-(2-((bis(4-chlorophenyl)methyl)sulfinyl)ethyl)-3-phenylpropan-1-amine], the results for the Ki in assay [1] (setting [6]), in assay [2] (setting [7]) and in assay [3] (setting [6]) were 5800 nM, 660 ± 76.9 nM and 542 ± 42.6 nM, respectively.

In the case of `NCC[S+]([O-])C(c1ccccc1)c1ccccc1` (stereo not drawn) [Compound 5a, 2-(Benzhydrylsulfinyl)ethan-1-amine], the Ki in assay [3] (setting [6]) was 3420 nM.

With `CCCCNC(=O)CSC(c1ccccc1)c1ccccc1` [Compound 2r, 2-(Benzhydrylthio)-N-butylacetamide], the Ki is more than 100000 nM in assay [1] (setting [9]), 24000 nM in assay [2] (setting [8]) and more than 100000 nM in assay [3] (setting [9]).

With `O=C(CSC(c1ccccc1)c1ccccc1)N1CCN(CCCc2ccccc2)CC1` [Compound 11a, 2-(Benzhydrylthio)-1-(4-(3-phenylpropyl)piperazin-1-yl)ethan-1-one], the Ki was 773 nM in assay [4]; 47.2 ± 5.56 nM in assay [2] (rat brain membranes, Table 5 piperazinyl derivatives, read-out: DAT Ki ± SEM); 1120 ± 20.3 nM in assay [5].

As for `O=C(CSC(c1ccc(Br)cc1)c1ccc(Br)cc1)NCCCCc1ccccc1` [Compound 2z, 2-((Bis(4-bromophenyl)methyl)thio)-N-(4-phenylbutyl)acetamide], in assay [1] (setting [9]), the “Ki (nM) ± S.E.M. NET” value is on record as “no displacement” and the Ki was more than 100000 nM. For the same molecule, the Ki in assay [3] (setting [9]) is more than 100000 nM.

With `NC(=O)CSC(c1ccccc1)c1ccccc1` [Compound 2a, 2-(Benzhydrylthio)acetamide], the Ki in assay [1] (setting [9]) was more than 100000 nM.

Take `CCCNC(=O)CSC(c1ccc(Br)cc1)c1ccc(Br)cc1` [Compound 2n, 2-((Bis(4-bromophenyl)methyl)thio)-N-propylacetamide]: the Ki in assay [1] (setting [9]) was found to be 10600 nM.

As for `CCCNC(=O)CSC(c1ccccc1)c1ccccc1` [Compound 2k, 2-(Benzhydrylthio)-N-propylacetamide], the Ki is 55900 nM in assay [1] (setting [9]), 20700 nM in assay [2] (setting [8]) and more than 550000 nM in assay [3] (setting [9]).

On to `c1ccc(C(SCCNCC2CC2)c2ccccc2)cc1` [Compound 4d, 2-(benzhydrylthio)-N-(cyclopropylmethyl)ethan-1-amine], for which the Ki in assay [2] (read-out: Ki (nM) ± S.E.M. DAT) amounted to 437 ± 30.1 nM; in assay [3] (setting [6]), 10000 nM.

On to `CCCNC(=O)CSC(c1ccc(Cl)cc1)c1ccc(Cl)cc1` [Compound 2m, 2-((Bis(4-chlorophenyl)methyl)thio)-N-propylacetamide], for which the Ki in assay [3] (setting [9]) turned out to be 10300 nM.

As to `c1ccc(CCCNCCSC(c2ccccc2)c2ccccc2)cc1` [Compound 4f, N-(2-(benzhydrylthio)ethyl)-3-phenylpropan-1-amine], the values for the Ki in assay [1] (setting [6]), in assay [2] (setting [7]) and in assay [3] (setting [6]) were 3910 nM, 297 ± 28.2 nM and 853 ± 127 nM, respectively.

As to `CCCCNC(=O)CSC(c1ccc(Br)cc1)c1ccc(Br)cc1` [Compound 2t, 2-((Bis(4-bromophenyl)methyl)thio)-N-butylacetamide], the Ki amounted to 729 ± 69.3 nM in assay [2] (setting [8]) and 7090 nM in assay [3] (setting [9]).

Consider `O=C(CSC(c1ccc(Br)cc1)c1ccc(Br)cc1)NCCCc1ccccc1` [Compound 2x, 2-((Bis(4-bromophenyl)methyl)thio)-N-(3-phenylpropyl)acetamide], for which the figures for the Ki in assay [1] (setting [9]), in assay [2] (setting [8]) and in assay [3] (setting [9]) were 36300 nM, 244 ± 36.4 nM and 60800 nM, respectively.

Turning to `NC(=O)CSC(c1cccc(Cl)c1)c1cccc(Cl)c1` [Compound 2e, 2-((Bis(3-chlorophenyl)methyl)thio)acetamide], the Ki in assay [1] (setting [9]) turned out to be 34000 nM; in assay [2] (setting [8]) it was 277 ± 18.3 nM; in assay [3] (setting [9]), 739000 nM.

With `O=C(CSC(c1ccccc1)c1ccccc1)NCCCc1ccccc1` [Compound 2u, 2-(Benzhydrylthio)-N-(3-phenylpropyl)acetamide], in assay [2] (read-out: Ki (nM) ± S.E.M. DAT), the Ki was found to be 2020 nM.

As to `O=C(CSC(c1ccc(F)cc1)c1ccc(F)cc1)NCCCc1ccccc1` [Compound 2v, 2-((Bis(4-fluorophenyl)methyl)thio)-N-(3-phenylpropyl)acetamide], the Ki in assay [1] (setting [9]) was more than 100000 nM; in assay [3] (setting [9]), 3640 nM.

As to `CCCCNCCSC(c1ccccc1)c1ccccc1` [Compound 4e, N-(2-(benzhydrylthio)ethyl)butan-1-amine], the inhibitory constant (Ki) came out at 11500 nM in assay [1] (setting [6]), 315 ± 39.9 nM in assay [2] (setting [7]) and 5820 nM in assay [3] (setting [6]).

On to `O=C(C[S+]([O-])C(c1ccc(Br)cc1)c1ccc(Br)cc1)NCCCc1ccccc1` (stereo not drawn) [Compound 3g, 2-(Bis(4-bromophenyl)methylsulfinyl)-N-(3-phenylpropyl)acetamide], for which the Ki is more than 100000 nM in assay [1] (setting [9]), 1290 nM in assay [2] (setting [8]) and 906 ± 113 nM in assay [3] (setting [9]).

For `CNC(=O)CSC(c1ccc(Cl)cc1)c1ccc(Cl)cc1` [Compound 2h, 2-((Bis(4-chlorophenyl)methyl)thio)-N-methylacetamide], the Ki in assay [3] (setting [9]) was more than 30000 nM.

Take `[O-][S+](CCNCCCc1ccccc1)C(c1ccc(Br)cc1)c1ccc(Br)cc1` (stereo not drawn) [Compound 5e, N-(2-((bis(4-bromophenyl)methyl)sulfinyl)ethyl)-3-phenylpropan-1-amine]: the Ki in assay [1] (setting [6]) worked out at 7580 nM; in assay [2] (setting [7]) it was 1290 nM; in assay [3] (setting [6]), 564 ± 65.3 nM.

With `[O-][S+](CCNCCCc1ccccc1)C(c1ccc(F)cc1)c1ccc(F)cc1` (stereo not drawn) [Compound 5c, N-(2-((bis(4-fluorophenyl)methyl)sulfinyl)ethyl)-3-phenylpropan-1-amine], the values for the Ki in assay [1] (setting [6]), in assay [2] (setting [7]) and in assay [3] (setting [6]) were 3280 nM, 200 ± 38.7 nM and 1310 nM, respectively.

In the case of `CNC(=O)CSC(c1ccc(Br)cc1)c1ccc(Br)cc1` [Compound 2i, 2-((Bis(4-bromophenyl)methyl)thio)-N-methylacetamide], the Ki in assay [1] (setting [9]) amounted to 11200 nM; in assay [2] (setting [8]) it was 3030 nM; in assay [3] (setting [9]), 5750 nM. For the same molecule, the “improvement in DAT affinity, halogen-substituted v. unsubstituted analogue” value in assay [2] is listed as 6 fold. Also, the “increase in SERT affinity, halogen-substituted v. unsubstituted analogue” value in assay [3] (2i v. 2g (Table 1), 4c v. 4a (Table 2)) is recorded as more than 50 fold.

On to `[O-][S+](CCNCCCc1ccccc1)C(c1ccccc1)c1ccccc1` (stereo not drawn) [Compound 200, reference compound], for which the Ki is 194 ± 16.8 nM in assay [2] (read-out: Ki (nM) ± S.E.M. DAT) and 1000 nM in assay [3] (setting [6]).

On to `NC(=O)C[S+]([O-])C(c1ccc(C(F)(F)F)cc1)c1ccc(C(F)(F)F)cc1` (stereo not drawn) [Compound 3b, 2-((Bis(4-(trifluoromethyl)phenyl)methyl)sulfinyl)acetamide], for which the Ki in assay [2] (setting [8]) turned out to be 35400 nM.

Turning to `NCCSC(c1ccccc1)c1ccccc1` [Compound 4a, 2-(benzhydrylthio)ethan-1-amine], the Ki in assay [1] (setting [6]) came to 982 ± 43.3 nM; in assay [2] (read-out: Ki (nM) ± S.E.M. DAT), 143 nM; in assay [3] (setting [6]) it was 226 ± 30.6 nM. In addition, the “improved affinity at the DAT compared to (±)-modafinil” value in assay [2] is recorded as “about 20 fold”.

With `Brc1ccc(C(SCCNCCCc2ccccc2)c2ccc(Br)cc2)cc1` [Compound 4i, N-(2-((bis(4-bromophenyl)methyl)thio)ethyl)-3-phenylpropan-1-amine], the inhibitory constant (Ki) in assay [2] (read-out: Ki (nM) ± S.E.M. DAT) is 618 ± 53 nM; in assay [3] (setting [6]), 163 ± 7.49 nM.

Turning to `C=CCNC(=O)CSC(c1ccccc1)c1ccccc1` [Compound 2j, N-Allyl-2-(benzhydrylthio)acetamide], the Ki in assay [1] (setting [9]) was more than 230000 nM; in assay [2] (setting [8]), 9190 nM; in assay [3] (setting [9]) it was more than 300000 nM.

For `CNC(=O)CSC(c1ccccc1)c1ccccc1` [Compound 2g, 2-(Benzhydrylthio)-N-methylacetamide], the Ki in assay [1] (setting [9]) is 27300 nM; in assay [2] (setting [8]), 19400 nM; in assay [3] (setting [9]), more than 300000 nM.

For the molecule `O=C(CSC(c1ccccc1)c1ccccc1)NCCCCc1ccccc1` [Compound 2y, 2-(Benzhydrylthio)-N-(4-phenylbutyl)acetamide], the Ki in assay [2] (read-out: Ki (nM) ± S.E.M. DAT) was 1160 nM.

For orientation: Ki means the dissociation constant of the complex between target and ligand, obtained from inhibition or displacement.

Source of the values: patent US9862679B2, “Potent and selective inhibitors of monoamine transporters; method of making; and use thereof” (priority 2013, dated 2018).
